This note sets out measurements from publication PMC2880392 (Bioorganic & medicinal chemistry letters, 2010).

Structures are written as SMILES. Read-outs that look alike come from different tables or passages of the source. Some results are limits rather than exact numbers.

Holding throughout (format): cell-based
The test system of assay [1] is IIIB strain of HIV-1 (WT). Kind of assay: Anti-HIV-1 activity, protection of infected MT-2 cells. The conditions noted are these: for EC50: Human immunodeficiency virus 1, IIIB; for anti-HIV-1 activity in words: wild-type HIV-1, MT-2 cells.
Assay [2] relates to HIV-1 Y181C variant strain. Kind of assay: Anti-HIV-1 activity in MT-2 cells, Y181C variant strain. The conditions noted are these: Human immunodeficiency virus 1, MT2, read-out: Y181C EC50.
The subject of assay [3] is HIV-1 K103N/Y181C variant strain. Kind of assay: Anti-HIV-1 activity in MT-2 cells, K103N/Y181C variant strain. The conditions noted are these: Human immunodeficiency virus 1, MT2, read-out: K103N/Y181C EC50.
Setting [4] is: MT2, read-out: Anti-HIV-1 Activity (EC50).

Regarding `Clc1cccc(Cl)c1Cc1nnc(Nc2ccc(COCc3ccccc3)cc2)o1` [Compound 1b], the EC50 in assay [1] (setting [4]) is over 21000 nM. Also, in assay [1], the “anti-HIV-1 activity in words” value was “inactivity”.

For the compound `Clc1cccc(Cl)c1Cc1nnc(Nc2ccc(COCc3ccoc3)cc2)o1` [Compound 1g], in assay [1] (setting [4]), the EC50 was over 21000 nM.

For `Clc1cccc(Cl)c1Cc1nnc(Nc2ccc(COCc3ccsc3)cc2)o1` [Compound 1h], the EC50 in assay [1] (setting [4]) is over 21000 nM.

For the compound `OCc1ccc(Nc2ncc(Cc3c(F)cccc3F)o2)cc1Cl` [Compound 3m], the “enhancement of WT activity by addition of the chlorine (factor)” value in assay [1] (3m versus 3i) came out at 15.

On to `[O-][n+]1ccc(OCc2ccc(Nc3ncc(Cc4c(F)cccc4F)o3)cc2Cl)cc1` [Compound 3o], for which the EC50 in assay [2] was over 2700 nM; in assay [3], over 2100 nM.

In the case of `N#Cc1ccc(Nc2ncc(Cc3c(F)cccc3F)o2)cc1` [Compound 3p], the EC50 in assay [2] is over 2700 nM.

On to `N#Cc1ccc(Nc2ncc(Cc3c(F)cccc3F)o2)cc1Cl` [Compound 3q], for which, in assay [3], the EC50 is over 2100 nM.

With `Fc1cccc(F)c1Cc1cnc(Nc2ccc(-c3ccncc3)c(Cl)c2)o1` [Compound 3u], the “anti-HIV-1 activity in words” value in assay [1] is “good activity”.

In the case of `Fc1cccc(F)c1Cc1cnc(Nc2ccc(-c3cccnc3)c(Cl)c2)o1` [Compound 3v], the “anti-HIV-1 activity in words” value in assay [1] is “good activity”. Also, the EC50 in assay [3] was over 2100 nM.

For the compound `O=C1Nc2ccc(Cl)cc2[C@@](C#CC2CC2)(C(F)(F)F)O1` [evafirenz, reference compound], in assay [1] (MT2, read-out: WT EC50), the EC50 was determined as 2 nM.

Take `Cc1ccnc2c1NC(=O)c1cccnc1N2C1CC1` [nevirapine, reference compound]: in assay [3], the EC50 was over 2100 nM.
